Test results: ChEMBL document CHEMBL3120141, “Discovery of (1R,6S)-5-[4-(1-cyclobutyl-piperidin-4-yloxy)-phenyl]-3,4-diaza-bicyclo[4.1.0]hept-4-en-2-one (R,S-4a): histamine H(3) receptor inverse agonist demonstrating potent cognitive enhancing and wake promoting activity” (Bioorg Med Chem Lett, 2014)
In brackets after ≈: the same amount, converted by molar mass. Activity calls are given as the source filed them. No cut-off for these calls is given here.

Key:
[1] = organism: Homo sapiens; assay: Selectivity ratio for human histamine H3 receptor over human histamine H2 receptor
[2] = target: Histamine H3 receptor (Rattus norvegicus, UniProt Q9QYN8); assay: Displacement of [3H]NAMH from rat histamine H3 receptor transfected in CHO cells; assay type: cell-based
Sequence of Histamine H3 receptor (Rattus norvegicus, UniProt Q9QYN8) (Q9QYN8 whole entry): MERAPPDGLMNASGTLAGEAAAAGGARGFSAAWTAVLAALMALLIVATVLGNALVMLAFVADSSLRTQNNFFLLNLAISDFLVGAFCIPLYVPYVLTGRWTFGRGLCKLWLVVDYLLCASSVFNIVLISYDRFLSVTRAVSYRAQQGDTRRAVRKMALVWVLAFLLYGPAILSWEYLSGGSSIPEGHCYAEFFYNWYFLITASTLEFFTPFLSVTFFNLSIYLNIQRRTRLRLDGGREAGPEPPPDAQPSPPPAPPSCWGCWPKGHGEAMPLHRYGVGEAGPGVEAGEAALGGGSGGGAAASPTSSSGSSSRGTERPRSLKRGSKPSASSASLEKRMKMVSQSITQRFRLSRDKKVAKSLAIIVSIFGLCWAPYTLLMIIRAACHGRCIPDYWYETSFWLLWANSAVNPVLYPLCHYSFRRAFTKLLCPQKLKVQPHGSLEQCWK

[3] = organism: Homo sapiens; assay: Selectivity ratio for human histamine H3 receptor over human histamine H1 receptor
[4] = target: T1, Histamine H3 receptor (Homo sapiens, UniProt Q9Y5N1); assay: Displacement of [3H]NAMH from human histamine H3 receptor transfected in CHO cells; assay type: cell-based
T1 sequence (Q9Y5N1 whole entry): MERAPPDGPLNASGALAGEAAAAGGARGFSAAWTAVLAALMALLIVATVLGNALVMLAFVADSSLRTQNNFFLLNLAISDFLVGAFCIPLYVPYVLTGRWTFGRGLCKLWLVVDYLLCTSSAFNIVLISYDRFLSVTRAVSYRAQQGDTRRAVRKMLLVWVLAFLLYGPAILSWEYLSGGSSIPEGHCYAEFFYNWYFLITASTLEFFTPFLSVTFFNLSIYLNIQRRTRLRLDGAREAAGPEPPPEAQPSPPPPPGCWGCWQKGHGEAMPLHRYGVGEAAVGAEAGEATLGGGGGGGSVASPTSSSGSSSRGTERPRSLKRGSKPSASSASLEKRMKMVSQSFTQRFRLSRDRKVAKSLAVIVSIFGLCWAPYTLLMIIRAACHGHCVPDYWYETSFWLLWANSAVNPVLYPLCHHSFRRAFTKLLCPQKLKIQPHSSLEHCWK

[5] = organism: Homo sapiens; assay: Selectivity ratio for human histamine H3 receptor over human histamine H4 receptor
[6] = test system: Rattus norvegicus; assay: Wake promoting activity in EEG/EMG rat model assessed as cumulative wake time at 30 mg/kg, ip after 1.5 hrs relative to vehicle-treated control; assay type: functional; conditions: route intraperitoneal
[7] = Clearance in dog at 1 mg/kg, iv; assay type: ADME, organism-based, Canis lupus familiaris; parameters: dose 1 mg/kg, route intravenous; conditions: in vivo
[8] = test system: Rattus norvegicus; assay: Wake promoting activity in EEG/EMG rat model assessed as cumulative wake time at 10 mg/kg, ip after 4 hrs (reference value: 86 +/- 7 mins); assay type: functional; conditions: route intraperitoneal
[9] = Clearance in rat at 1 mg/kg, iv; assay type: ADME, organism-based; parameters: dose 1 mg/kg, route intravenous; conditions: in vivo
[10] = test system: Rattus norvegicus; assay: Toxicity in EEG/EMG rat model assessed as sleep rebound at 1 to 30 mg/kg, ip; assay type: organism-based; parameters: dose 1-30 mg/kg, route intraperitoneal; conditions: in vivo
[11] = Plasma protein binding in rat; assay type: ADME, cell-free; conditions: read-out: PPB (converted)
[12] = test system: Rattus norvegicus; assay: Wake promoting activity in EEG/EMG rat model assessed as cumulative wake time at 1 mg/kg, ip after 4 hrs (reference value: 86 +/- 7 mins); assay type: functional; conditions: route intraperitoneal
[13] = Solubility of the compound in water at pH 7.4; assay type: physicochemical
[14] = Ratio of drug uptake in brain to plasma in dog at 5 mg/kg, po after 6 hrs; assay type: ADME, organism-based, Canis lupus familiaris; parameters: dose 5 mg/kg, route oral; conditions: read-out: BPR
[15] = Clearance in monkey at 1 mg/kg, iv; assay type: ADME, organism-based, Macaca mulatta; parameters: dose 1 mg/kg, route intravenous; conditions: rhesus monkey, in vivo
[16] = target: Histamine H2 receptor (Homo sapiens) (UniProt P25021); assay: Inhibition of human histamine H2 receptor at 10 uM
Sequence of Histamine H2 receptor (Homo sapiens) (P25021 whole entry): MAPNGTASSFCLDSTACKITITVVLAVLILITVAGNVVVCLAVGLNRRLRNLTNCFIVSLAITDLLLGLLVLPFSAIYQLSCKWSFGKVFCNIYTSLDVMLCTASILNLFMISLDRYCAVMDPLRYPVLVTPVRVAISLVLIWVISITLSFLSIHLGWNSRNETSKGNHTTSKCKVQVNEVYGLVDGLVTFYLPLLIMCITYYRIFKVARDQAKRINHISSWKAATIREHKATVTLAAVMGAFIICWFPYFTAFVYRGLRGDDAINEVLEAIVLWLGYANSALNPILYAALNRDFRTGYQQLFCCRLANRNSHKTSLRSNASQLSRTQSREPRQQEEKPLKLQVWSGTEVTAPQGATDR

[17] = Terminal half life in dog at 1 mg/kg, iv; assay type: ADME, organism-based, Canis lupus familiaris; parameters: dose 1 mg/kg, route intravenous; conditions: in vivo, read-out: beta t1/2 (converted)
[18] = test system: Rattus norvegicus; assay: Wake promoting activity in EEG/EMG rat model assessed as cumulative wake time at 30 mg/kg, ip after 4 hrs (reference value: 86 +/- 7 mins); assay type: functional; conditions: route intraperitoneal
[19] = Ratio of drug uptake in brain to plasma in rat at 10 mg/kg, ip after 6 hrs; assay type: ADME, organism-based; parameters: dose 10 mg/kg, route intraperitoneal; conditions: read-out: BPR
[20] = Cmax in monkey at 3 mg/kg, po; assay type: ADME, organism-based, Macaca mulatta; parameters: dose 3 mg/kg, route oral; conditions: rhesus monkey, in vivo
[21] = Plasma protein binding in dog; assay type: ADME, cell-free, Canis lupus familiaris; conditions: read-out: PPB (converted)
[22] = Terminal half life in rat at 1 mg/kg, iv; assay type: ADME, organism-based; parameters: dose 1 mg/kg, route intravenous; conditions: in vivo, read-out: beta t1/2 (converted)
[23] = test system: Rattus norvegicus; assay: Enhancement of short term memory in rat social recognition memory model assessed as decrease in investigation ratio at 0.03 to 0.3 mg/kg, po; assay type: functional, organism-based
[24] = target: T1, Histamine H3 receptor; assay: Inverse agonist activity at human histamine H3 receptor by [35S]GTPgammaS binding assay; assay type: functional
[25] = target: Voltage-gated inwardly rectifying potassium channel KCNH2 (Homo sapiens, UniProt Q12809); assay: Inhibition of human ERG channel by patch clamp technique
Sequence of Voltage-gated inwardly rectifying potassium channel KCNH2 (Q12809 whole entry): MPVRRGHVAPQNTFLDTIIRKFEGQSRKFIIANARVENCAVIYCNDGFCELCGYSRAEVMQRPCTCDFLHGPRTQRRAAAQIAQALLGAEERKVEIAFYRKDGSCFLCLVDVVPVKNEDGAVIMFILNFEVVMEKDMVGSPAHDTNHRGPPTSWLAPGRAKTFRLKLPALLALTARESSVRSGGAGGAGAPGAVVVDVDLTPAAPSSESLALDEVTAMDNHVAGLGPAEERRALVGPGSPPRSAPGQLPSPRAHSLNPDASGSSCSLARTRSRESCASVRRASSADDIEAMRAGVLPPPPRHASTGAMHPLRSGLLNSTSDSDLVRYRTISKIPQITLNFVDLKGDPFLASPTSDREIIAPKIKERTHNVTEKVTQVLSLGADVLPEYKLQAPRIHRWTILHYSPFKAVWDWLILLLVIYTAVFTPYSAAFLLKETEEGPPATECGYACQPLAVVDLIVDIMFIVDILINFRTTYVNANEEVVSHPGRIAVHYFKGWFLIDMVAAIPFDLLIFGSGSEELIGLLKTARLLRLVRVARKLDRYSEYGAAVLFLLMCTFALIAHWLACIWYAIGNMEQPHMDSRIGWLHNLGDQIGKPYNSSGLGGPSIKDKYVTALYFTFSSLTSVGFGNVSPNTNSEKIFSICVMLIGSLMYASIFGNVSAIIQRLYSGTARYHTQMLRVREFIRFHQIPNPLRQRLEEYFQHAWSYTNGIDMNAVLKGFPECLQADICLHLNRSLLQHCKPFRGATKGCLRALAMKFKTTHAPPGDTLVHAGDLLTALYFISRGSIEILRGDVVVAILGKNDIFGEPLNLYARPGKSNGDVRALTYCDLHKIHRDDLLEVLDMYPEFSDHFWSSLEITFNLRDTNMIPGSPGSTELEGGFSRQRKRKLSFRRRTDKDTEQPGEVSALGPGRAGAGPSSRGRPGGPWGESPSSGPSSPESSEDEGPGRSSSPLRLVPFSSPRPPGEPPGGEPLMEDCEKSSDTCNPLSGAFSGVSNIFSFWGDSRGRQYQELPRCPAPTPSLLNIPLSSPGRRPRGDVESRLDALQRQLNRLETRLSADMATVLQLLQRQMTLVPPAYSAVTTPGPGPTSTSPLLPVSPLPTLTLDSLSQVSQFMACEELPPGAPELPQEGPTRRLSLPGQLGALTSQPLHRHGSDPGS

[26] = Oral bioavailability in rat at 5 mg/kg; assay type: ADME, organism-based; conditions: in vivo
[27] = AUC in rat at 5 mg/kg, po; assay type: ADME, organism-based, Plasma; parameters: dose 5 mg/kg, route oral; conditions: plasma
[28] = Half life in monkey liver microsomes; assay type: ADME, Macaca mulatta, Microsome; conditions: rhesus monkey
[29] = AUC in monkey at 3 mg/kg, po; assay type: ADME, organism-based, Macaca mulatta; parameters: dose 3 mg/kg, route oral; conditions: rhesus monkey, plasma
[30] = test system: Rattus norvegicus; assay: Wake promoting activity in EEG/EMG rat model assessed as cumulative wake time at 3 mg/kg, ip after 4 hrs (reference value: 86 +/- 7 mins); assay type: functional; conditions: route intraperitoneal
[31] = Oral bioavailability in dog at 3 mg/kg; assay type: ADME, organism-based, Canis lupus familiaris; conditions: in vivo
[32] = Cmax in rat at 5 mg/kg, po; assay type: ADME, organism-based; parameters: dose 5 mg/kg, route oral; conditions: in vivo
[33] = AUC in dog at 3 mg/kg, po; assay type: ADME, organism-based, Canis lupus familiaris; parameters: dose 3 mg/kg, route oral; conditions: plasma
[34] = Volume of distribution at steady state in monkey at 1 mg/kg, iv; assay type: ADME, organism-based, Macaca mulatta; parameters: dose 1 mg/kg, route intravenous; conditions: rhesus monkey, in vivo, read-out: Vdss
[35] = Volume of distribution at steady state in dog at 1 mg/kg, iv; assay type: ADME, organism-based, Canis lupus familiaris; parameters: dose 1 mg/kg, route intravenous; conditions: in vivo, read-out: Vdss
[36] = Apparent permeability across human Caco2 cells; assay type: ADME, cell-based; conditions: Caco-2
[37] = Solubility of the compound in water at pH 2; assay type: physicochemical
[38] = Half life in human liver microsomes; assay type: ADME
[39] = Oral bioavailability in monkey at 3 mg/kg; assay type: ADME, organism-based, Macaca mulatta; conditions: rhesus monkey, in vivo
[40] = target: Cytochrome P450 2D6 (Homo sapiens, UniProt P10635); assay: Inhibition of CYP2D6 (unknown origin); assay type: ADME
Sequence of Cytochrome P450 2D6 (P10635 whole entry): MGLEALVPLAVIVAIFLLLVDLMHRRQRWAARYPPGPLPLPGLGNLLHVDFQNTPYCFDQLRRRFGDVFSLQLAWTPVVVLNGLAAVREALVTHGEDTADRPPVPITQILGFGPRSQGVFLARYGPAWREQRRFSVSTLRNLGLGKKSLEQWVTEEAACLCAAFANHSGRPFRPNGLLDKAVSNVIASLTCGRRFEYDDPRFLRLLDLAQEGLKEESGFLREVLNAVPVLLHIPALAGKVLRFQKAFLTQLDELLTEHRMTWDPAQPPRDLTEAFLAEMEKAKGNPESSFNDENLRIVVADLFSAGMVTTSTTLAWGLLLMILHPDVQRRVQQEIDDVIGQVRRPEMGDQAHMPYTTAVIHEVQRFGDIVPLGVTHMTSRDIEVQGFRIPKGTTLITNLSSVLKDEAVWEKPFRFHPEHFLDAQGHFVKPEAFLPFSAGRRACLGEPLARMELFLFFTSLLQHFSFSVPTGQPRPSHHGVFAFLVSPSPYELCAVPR

[41] = target: T2, Cytochrome P450 1A2 (Homo sapiens, UniProt P05177); assay: Inhibition of CYP1A2 (unknown origin); assay type: ADME
T2 sequence (P05177 whole entry): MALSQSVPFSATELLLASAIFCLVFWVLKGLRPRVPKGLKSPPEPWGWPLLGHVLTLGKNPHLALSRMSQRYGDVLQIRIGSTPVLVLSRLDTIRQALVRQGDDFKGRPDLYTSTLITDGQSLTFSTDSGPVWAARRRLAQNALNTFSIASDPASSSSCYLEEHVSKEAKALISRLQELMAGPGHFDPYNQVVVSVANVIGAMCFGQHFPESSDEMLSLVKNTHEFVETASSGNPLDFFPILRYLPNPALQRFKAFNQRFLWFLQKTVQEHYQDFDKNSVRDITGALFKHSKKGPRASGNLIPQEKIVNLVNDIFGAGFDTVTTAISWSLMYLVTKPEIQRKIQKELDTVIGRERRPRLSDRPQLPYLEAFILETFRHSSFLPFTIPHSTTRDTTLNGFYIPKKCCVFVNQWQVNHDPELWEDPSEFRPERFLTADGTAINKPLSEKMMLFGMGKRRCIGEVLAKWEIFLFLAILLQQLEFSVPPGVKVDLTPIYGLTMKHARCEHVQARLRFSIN

[42] = Half life in mouse liver microsomes; assay type: ADME, Microsome
[43] = Volume of distribution at steady state in rat at 1 mg/kg, iv; assay type: ADME, organism-based; parameters: dose 1 mg/kg, route intravenous; conditions: in vivo, read-out: Vdss
[44] = Terminal half life in monkey at 1 mg/kg, iv; assay type: ADME, organism-based, Macaca mulatta; parameters: dose 1 mg/kg, route intravenous; conditions: rhesus monkey, in vivo, read-out: beta t1/2 (converted)
[45] = test system: Rattus norvegicus; assay: Wake promoting activity in ip dosed EEG/EMG rat model assessed as cumulative wake time after 4 hrs; assay type: functional, organism-based
[46] = target: Histamine H4 receptor (Homo sapiens) (UniProt Q9H3N8); assay: Inhibition of human histamine H4 receptor at 10 uM
[47] = test system: Rattus norvegicus; assay: Toxicity in EEG/EMG rat model assessed as EEG activity at 1 to 30 mg/kg, ip; assay type: organism-based; parameters: dose 1-30 mg/kg, route intraperitoneal; conditions: in vivo
[48] = target: Cytochrome P450 3A4 (Homo sapiens, UniProt P08684); assay: Inhibition of CYP3A4 (unknown origin); assay type: ADME
Sequence of Cytochrome P450 3A4 (P08684 whole entry): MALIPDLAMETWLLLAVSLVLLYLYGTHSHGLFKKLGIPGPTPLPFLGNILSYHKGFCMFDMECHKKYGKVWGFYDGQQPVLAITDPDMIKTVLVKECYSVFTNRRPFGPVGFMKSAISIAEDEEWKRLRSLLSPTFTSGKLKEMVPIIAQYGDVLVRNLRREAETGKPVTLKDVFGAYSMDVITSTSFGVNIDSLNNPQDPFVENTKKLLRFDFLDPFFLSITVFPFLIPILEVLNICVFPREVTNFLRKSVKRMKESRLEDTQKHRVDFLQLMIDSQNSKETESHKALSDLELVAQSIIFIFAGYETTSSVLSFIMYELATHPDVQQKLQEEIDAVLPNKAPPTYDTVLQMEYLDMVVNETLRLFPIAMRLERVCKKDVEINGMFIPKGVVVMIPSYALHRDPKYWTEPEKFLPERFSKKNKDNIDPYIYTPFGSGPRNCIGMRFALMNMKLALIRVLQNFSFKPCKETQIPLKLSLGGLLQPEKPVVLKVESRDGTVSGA

[49] = test system: Rattus norvegicus; assay: Wake promoting activity in EEG/EMG rat model assessed as cumulative wake time at 30 mg/kg, ip after 7.5 to 18 hrs relative to vehicle-treated control; assay type: functional; conditions: route intraperitoneal
[50] = Half life in rat liver microsomes; assay type: ADME
[51] = test system: Rattus norvegicus; assay: Toxicity in EEG/EMG rat model assessed as abnormal behavior at 1 to 30 mg/kg, ip; assay type: organism-based; parameters: dose 1-30 mg/kg, route intraperitoneal; conditions: in vivo
[52] = Plasma protein binding in human; assay type: ADME, cell-free; conditions: read-out: PPB (converted)
[53] = test system: Rattus norvegicus; assay: Wake promoting activity in EEG/EMG rat model assessed as cumulative wake time at 10 mg/kg, ip after 1.5 hrs relative to vehicle-treated control; assay type: functional; conditions: route intraperitoneal
[54] = Cmax in dog at 3 mg/kg, po; assay type: ADME, organism-based, Canis lupus familiaris; parameters: dose 3 mg/kg, route oral; conditions: in vivo
[55] = target: Histamine H1 receptor (Homo sapiens) (UniProt P35367); assay: Inhibition of human histamine H1 receptor at 10 uM
Sequence of Histamine H1 receptor (Homo sapiens) (P35367 whole entry): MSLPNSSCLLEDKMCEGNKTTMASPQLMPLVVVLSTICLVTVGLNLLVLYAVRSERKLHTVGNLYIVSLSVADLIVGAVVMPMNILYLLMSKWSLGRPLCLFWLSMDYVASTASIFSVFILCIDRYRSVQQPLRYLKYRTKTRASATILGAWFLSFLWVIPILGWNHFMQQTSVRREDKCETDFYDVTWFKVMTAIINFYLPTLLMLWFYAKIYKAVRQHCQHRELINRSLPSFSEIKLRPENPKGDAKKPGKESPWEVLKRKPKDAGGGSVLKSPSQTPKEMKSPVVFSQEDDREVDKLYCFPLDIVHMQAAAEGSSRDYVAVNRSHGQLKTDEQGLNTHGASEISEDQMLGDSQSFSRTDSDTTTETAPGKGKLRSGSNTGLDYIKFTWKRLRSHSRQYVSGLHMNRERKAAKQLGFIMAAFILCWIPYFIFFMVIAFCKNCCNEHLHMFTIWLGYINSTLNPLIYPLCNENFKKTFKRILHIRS

[56] = target: Cytochrome P450 2C19 (Homo sapiens, UniProt P33261); assay: Inhibition of CYP2C19 (unknown origin); assay type: ADME
Sequence of Cytochrome P450 2C19 (P33261 whole entry): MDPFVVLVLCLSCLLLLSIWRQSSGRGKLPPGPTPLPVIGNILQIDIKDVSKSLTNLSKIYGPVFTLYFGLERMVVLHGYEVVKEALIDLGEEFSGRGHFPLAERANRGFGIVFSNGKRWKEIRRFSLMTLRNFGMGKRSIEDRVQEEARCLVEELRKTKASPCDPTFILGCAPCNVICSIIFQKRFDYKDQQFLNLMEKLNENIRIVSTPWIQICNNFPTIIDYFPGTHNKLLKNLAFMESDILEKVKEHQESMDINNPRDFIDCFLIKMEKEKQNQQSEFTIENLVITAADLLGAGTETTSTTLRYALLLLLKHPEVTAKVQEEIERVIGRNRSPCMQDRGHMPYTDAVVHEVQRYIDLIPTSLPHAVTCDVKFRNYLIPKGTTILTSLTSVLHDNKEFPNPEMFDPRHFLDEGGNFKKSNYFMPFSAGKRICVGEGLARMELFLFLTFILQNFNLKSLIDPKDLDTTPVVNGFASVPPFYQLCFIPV

[57] = Half life in dog liver microsomes; assay type: ADME, Canis lupus familiaris
[58] = test system: Rattus norvegicus; assay: In vivo inhibition of histamine H3 receptor in ip dosed rat dipsogenia model assessed as inhibition of RAMH-induced dipsogenia; assay type: functional
[59] = target: Cytochrome P450 2C9 (Homo sapiens, UniProt P11712); assay: Inhibition of CYP2C9 (unknown origin); assay type: ADME
Sequence of Cytochrome P450 2C9 (P11712 whole entry): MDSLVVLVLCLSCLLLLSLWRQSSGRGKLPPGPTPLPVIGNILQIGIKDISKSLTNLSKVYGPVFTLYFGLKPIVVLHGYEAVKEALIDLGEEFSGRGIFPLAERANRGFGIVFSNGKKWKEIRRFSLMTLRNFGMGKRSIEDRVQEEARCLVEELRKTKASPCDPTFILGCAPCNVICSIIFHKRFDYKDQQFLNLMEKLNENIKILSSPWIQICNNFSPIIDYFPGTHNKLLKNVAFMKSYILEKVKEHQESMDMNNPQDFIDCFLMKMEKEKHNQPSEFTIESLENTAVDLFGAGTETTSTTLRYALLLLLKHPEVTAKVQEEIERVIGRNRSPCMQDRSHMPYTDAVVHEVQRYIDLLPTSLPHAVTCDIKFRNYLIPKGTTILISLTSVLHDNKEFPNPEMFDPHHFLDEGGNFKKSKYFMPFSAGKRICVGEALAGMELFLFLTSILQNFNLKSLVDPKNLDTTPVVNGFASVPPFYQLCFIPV

O=C1C2CC2C(c2ccc(OC3CCN(C4CCC4)CC3)cc2)=NN1c1ccc(F)cc1 (racemic)
Selectivity ratio [1]: > 1000
Ki [2]: 6.7 nM
Selectivity ratio [3]: > 1000
Ki [4]: 3.5 nM
Selectivity ratio [5]: > 1000

O=C1NN=C(c2ccc(OC3CCN(C4CCC4)CC3)cc2)[C@H]2C[C@@H]12
Activity [6]: 90%
clearance [7]: 16 mL/min/kg
Time [8]: 189 min
clearance [9]: 17 mL/min/kg
Activity [10]: Non-toxic
fraction unbound [11]: 0.23
Time [12]: 121 min
solubility [13]: 800 µg/mL (≈ 2360 µM)
Kp at 6 h [14]: 5.1
clearance [15]: 8 mL/min/kg
inhibition [16]: < 10%
half-life [17]: 3 h
Time [18]: 217 min
Kp at 6 h [19]: 3.6
Cmax [20]: 645 ng/mL
fraction unbound [21]: 0.23
half-life [22]: 2.6 h
Activity [23]: Active
EC50 [24]: 0.4 nM
IC50 [25]: 14000 nM
bioavailability [26]: 92%
AUC [27]: 8320 ng·h/mL
half-life [28]: > 0.667 h
Ki [2]: 7.3 nM
AUC [29]: 7190 ng·h/mL
Time [30]: 129 min
bioavailability [31]: 94%
Cmax [32]: 888 ng/mL
AUC [33]: 2960 ng·h/mL
Vd [34]: 6 L/kg
Vd [35]: 4.1 L/kg
Papp [36]: 16.4 ×10⁻⁶ cm/s
solubility [37]: > 1000 µg/mL
half-life [38]: > 0.667 h
bioavailability [39]: 114%
IC50 [40]: > 30000 nM
IC50 [41]: > 30000 nM
half-life [42]: > 0.667 h
Vd [43]: 3.7 L/kg
half-life [44]: 8.6 h
Activity [45]: Dose-dependent effect
Ki [4]: 3.8 nM
inhibition [46]: < 10%
Activity [47]: Non-toxic
IC50 [48]: > 30000 nM
Time [49]: 174 min
half-life [50]: > 0.667 h
Activity [51]: Non-toxic
fraction unbound [52]: 0.23
Activity [53]: >90%
Cmax [54]: 502 ng/mL
inhibition [55]: < 10%
IC50 [56]: > 30000 nM
half-life [57]: > 0.667 h
ED50 [58]: 0.14 mg/kg
inhibition [58]: Dose-dependent effect
IC50 [59]: > 30000 nM
